From US20230365563A1, “QUINAZOLINE COMPOUND AND APPLICATION THEREOF” (SHANGHAI PHARMACEUTICALS HOLDING CO., LTD., priority 2020, published 2023)
Structures can show the parent of a compound that is named as a salt.

Columns and labels:
[1] = molecular target: T1, KRAS-G12D and SOS1 (Homo sapiens, UniProt P01116, G12D); test: Inhibition of KRAS-G12D/SOS1 binding (Cisbio binding kit, 665/615 ratio), Effect Embodiment A; conditions: read-out: GTP-KRAS-G12D:SOS1 IC50
T1 construct: purchased
In short: (§1)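 Test compounds were serially diluted 3-fold from the storage solution over 11 points and dispensed in duplicate wells at 1% final DMSO.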

[2] = molecular target: T2, KRAS_G12D and cRAF (Homo sapiens, UniProt P01116, G12D); test: Inhibition of KRAS_G12D/cRAF binding (Cisbio binding kit, 665/615 ratio), Effect Embodiment B; conditions: read-out: GTP-KRAS-G12D:CRAF IC50
T2 construct: purchased
In short: as §1

[3] = molecular target: T3, KRAS_WT and SOS1 (Homo sapiens, UniProt P01116); test: Inhibition of KRAS_WT/SOS1 binding (Cisbio binding kit, 665/615 ratio), Effect Embodiment C; conditions: read-out: GTP-KRAS-WT:SOS1 IC50
T3 construct: purchased
In short: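 Compounds tested as 3-fold, 11-point dilutions in duplicate at 1% DMSO final against the KRAS_WT/SOS1 binding system. IC50 derived by nonlinear regression fit.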

T2 sequence (P01116 1-188 isoform P01116-2 G12D): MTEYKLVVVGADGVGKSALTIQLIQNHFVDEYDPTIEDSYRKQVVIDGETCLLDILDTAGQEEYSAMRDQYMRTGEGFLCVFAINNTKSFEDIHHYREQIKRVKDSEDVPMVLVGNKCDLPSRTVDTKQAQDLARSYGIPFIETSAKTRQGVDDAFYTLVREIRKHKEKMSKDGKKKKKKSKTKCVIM
T1 sequence (P01116 1-188 isoform P01116-2 G12D): as above
T3 sequence (P01116 1-188 isoform P01116-2): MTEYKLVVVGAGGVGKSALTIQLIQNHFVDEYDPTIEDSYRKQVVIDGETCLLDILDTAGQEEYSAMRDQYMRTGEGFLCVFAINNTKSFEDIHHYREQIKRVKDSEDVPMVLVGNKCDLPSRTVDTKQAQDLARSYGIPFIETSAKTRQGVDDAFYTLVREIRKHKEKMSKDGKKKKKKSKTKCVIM

Structure (SMILES) | IC50 [1] [nM] | IC50 [2] [nM] | IC50 [3] [nM]
C#Cc1c(F)ccc2cccc(-c3c(F)cc4c(N5CC6CCC(C5)N6)nc(OCCCN5C6CCC5COC6)nc4c3F)c12 (single isomer, unassigned) [Compound 272b, 8-(3-((R or S)-4-((1R,5S)-3,8-diazabicyclo[3.2.1]octan-3-yl)-7-(8-ethynyl-7-fluoronaphtthalen-1-yl)-6,8-difluoroquinazolin-2-yl)oxy)propyl)-3-oxa-8-azabicyclo[3.2.1]octane formate] | 18 | 76.8 | 4260
Oc1cc(-c2c(Cl)cc3c(N4CC5CCC(C4)N5)nc(OCC(F)CN4CCCC4)nc3c2F)c2ccccc2c1 (single isomer, unassigned) [Compound 109b, 4-((S or R)-4-((1R,5S)-3,8-diazabicyclo[3.2.1]octan-3-yl)-6-chloro-8-fluoro-2-((R or S)-2-fluoro-3-(pyrrolidin-1-yl)propoxy)quinazolin-7-yl)naphthalen-2-ol hydrochloride] | 58.2 | 208 | 5350
CO[C@@H](COc1nc(N2CC3CCC(C2)N3)c2cc(Cl)c(-c3cc(O)cc4ccccc34)c(F)c2n1)CN1C2CCC1COC2 (single isomer, unassigned) [Compound 182, (4R or S)-4-(2-((2R)-3-(3-oxa-8-azabicyclo[3.2.1]octan-8-yl)-2-methoxypropoxy)-4-((1R,5S)-3,8-diazabicyclo[3.2.1]octan-3-yl)-6-chloro-8-fluoroquinazolin-7-yl)naphthalen-2-ol diformate] | 53.3 | 219 | 3400
C[C@@H](COc1nc(N2CC3CCC(C2)N3)c2cc(Cl)c(-c3cc(O)cc4ccccc34)c(F)c2n1)CN(C)C (single isomer, unassigned) [Compound 203, 4-((S or R)-4-((1R,5S)-3,8-diazabicyclo[3.2.1]octan-3-yl)-6-chloro-2-((R)-3-(dimethylamino)-2-methylpropoxy)-8-fluoroquinazolin-7-yl)naphthalen-2-ol diformate] | 19.8 | 33.9 | 893
C[C@H](COc1nc(N2CC3CCC(C2)N3)c2cc(Cl)c(-c3cc(O)cc4ccccc34)c(F)c2n1)CN1C[C@@H](C)O[C@@H](C)C1 (single isomer, unassigned) [Compound 206, 4-((S or R)-4-((1R,5S)-3,8-diazabicyclo[3.2.1]octan-3-yl)-6-chloro-2-((S)-3-((2S,6R)-2,6-dimethylmorpholinyl)-2-methylpropoxy)-8-fluoroquinazolin-7-yl)naphthalen-2-ol diformate] | 46.1 | 134 | 6830
CO[C@@H]1C[C@@H](COc2nc(N3CC4CCC(C3)N4)c3cnc(-c4cc(O)cc5ccccc45)c(F)c3n2)N(C)C1 [Compound 134, 4-(4-((1R,5S)-3,8-diazabicyclo[3.2.1]octan-3-yl)-8-fluoro-2-((2S,4R)-4-methxoy-1-methylpyrrolidin-2-yl)methoxy)pyridinyl[4,3-d]pyrimidin-7-yl)naphthalen-2-ol diformate] | 17.9 | 26.2 | 498
CN(C)C1CN(c2nc(N3[C@@H]4CC[C@H]3CNC4)c3cc(Cl)c(-c4cc(O)cc5ccccc45)c(F)c3n2)C1 (single isomer, unassigned) [Compound 6a, (R or S)-4-(4-((1R,5S)-3,8-diazabicyclo [3.2.1]octan-8-yl)-6-chloro-2-(3-(dimethylamino)azetidin-1-yl)-8-fluoro-quinazolin-7-yl)naphthalen-2-ol] | 66.4 | 66 | 293
CN1CCC[C@H]1COc1nc(N2CC3(C)CCC(C)(C2)N3)c2cc(Cl)c(-c3cc(O)cc4ccccc34)c(F)c2n1 (single isomer, unassigned) [Compound 194a, 4-((R or S)-6-chloro-4-((1R,5S)-1,5-dimethyl-3,8-diazabicyclo[3.2.1]octan-3-yl)-8-fluoro-2-(((S)-1-methylpyrrolidin-2-yl)methoxy)quinazolin-7-yl)naphthalen-2-ol diformate] | 27.9 | 155 | 205
CN(C)C1CCC(Oc2nc(N3CC4CCC(C3)N4)c3cc(Cl)c(-c4cc(O)cc5ccccc45)c(F)c3n2)C1 (single isomer, unassigned) [Compound 70c, 4-((S or R)-4-((1R,5S)-3,8-diazabicyclo[3.2.1]octan-3-yl)-6-chloro-2-((1S,3S or 1R,3R)-3-(dimethylamino)cyclopentyl)oxy)-8-fluoroquinazolin-7-yl)naphthalen-2-ol dihydrochloride] | 74.1 | 417 | 38300
C[C@@H](COc1nc(N2CC3CCC(C2)N3)c2cc(Cl)c(-c3cc(O)cc4ccccc34)c(F)c2n1)CN1C[C@@H](C)OC[C@H]1C (single isomer, unassigned) [Compound 236, 4-((S or R)-4-((1R,5S)-3,8-diazacyclo[3.2.1]octan-3-yl)-6-chloro-2-((R)-3-((2R,5R)-2,5-dimethylmorpholinyl)-2-methylpropoxy)-8-fluoroquinazolin-7-yl)naphthalen-2-ol formate] | 19.1 | 15 | 309
CC(C)CN(C)CCCOc1nc(N2C[C@H]3CC[C@@H](C2)N3)c2cc(Cl)c(-c3cc(O)cc4ccccc34)c(F)c2n1 (single isomer, unassigned) [Compound 115, 4-((S or R)-4-((1R,5S)-3,8-diazacyclo[3.2.1]octan-3-yl)-6-chloro-8-fluoro-2-(3-(isobutyl(methyl)amino)propoxy)quinazolin-7-yl)naphthalen-2-ol dihydrochloride] | 67.8 | 130 | 4130
C[C@@H](COc1nc(N2CC3CCC(C2)N3)c2cc(Cl)c(-c3cc(O)cc4ccc(F)c(F)c34)c(F)c2n1)CN1C2CCC1COC2 (single isomer, unassigned) [Compound 228, ((4S or 4R) 4-(2-((2R)-3-(3-oxa-8-azabicyclo[3.2.1]octan-8-yl)-2-methylpropoxy)-4-((1R,5S)-3,8-diazabicyclo[3.2.1]octan-3-yl)-6-chloro-8-fluoroquinazolin-7-yl)-5,6-difluoronaphthalen-2-ol formate] | 14.2 | 18.3 | 92.3

The remaining lines, values ahead:

IC50 [1] [nM] | IC50 [2] [nM] | IC50 [3] [nM] | Structure (SMILES)
64.1 | 461 | 14000 | CN1CCCC[C@H]1COc1nc(N2CC3CCC(C2)N3)c2cc(Cl)c(-c3cc(O)cc4ccccc34)c(F)c2n1 (single isomer, unassigned) [Compound 56a, 4-((S or R)-4-((1R,5S)-3,8-diazabicyclo[3.2.1]octan-3-yl)-6-chloro-8-fluoro-2-((S)-1-methylpiperidin-2-yl)methoxy)quinazolin-7-yl)naphthalen-2-ol dihydrochloride]
19.4 | 120 | 1260 | CN(CCCCN1CCNCC1)CCCOc1nc(N2C[C@H]3CC[C@@H](C2)N3)c2cc(Cl)c(-c3cc(O)cc4ccccc34)c(F)c2n1 (single isomer, unassigned) [Compound 103, (S or R)-4-(4-((1R,5S)-3,8-diazabicyclo[3.2.1]octan-3-yl)-6-chloro-8-fluoro-2-(3-(methyl(4-(piperazin-1-yl)butyl)amino)propoxy)quinazolin-7-yl)naphthalen-2-ol tetrahydrochloride]
52.7 | 170 | 1680 | C[C@@H]1CN(CCCOc2nc(N3CC4CCC(C3)N4)c3cc(Cl)c(-c4cc(O)cc5ccccc45)c(F)c3n2)C[C@H](C)O1 (single isomer, unassigned) [Compound 125, 4-((S or R)-4-((1R,5S)-3,8-diazacyclo[3.2.1]octan-3-yl)-6-chloro-2-(3-((2S,6R)-2,6-dimethylmorpholine)propoxy)-8-fluoroquinolin-7-yl)naphthalen-2-ol hydrochloride]
43.1 | 202 | 1210 | Oc1cc(-c2c(Cl)cc3c(N4CC5CCC(C4)N5)nc(OCCCN4CCC5(CCOC5)C4)nc3c2F)c2ccccc2c1 (single isomer, unassigned) [Compound 270, (4R or 4S)-4-(2-(3-(2-oxo-7-azaspiro[4.4]nonan-7-yl)propoxy)-4-(1R,5S)-3,8-diazacyclo[3.2.1]octan-3-yl)-6-chloro-8-fluoroquinazolin-7-yl)naphthalen-2-ol diformate]
49.7 | 203 | 3600 | C[C@@H]1CN(CCCOc2nc(N3CC4CCC(C3)N4)c3cc(Cl)c(-c4cc(O)cc5ccccc45)c(F)c3n2)CCO1 (single isomer, unassigned) [Compound 241, 4-((S or R)-4-((1R,5S)-3,8-diazacyclo[3.2.1]octan-3-yl)-6-chloro-8-fluoro-2-(3-((R)-2-methylmorpholinyl)propoxy)quinazolin-7-yl)naphthalen-2-ol formate]
27.4 | 110 | 1480 | Oc1cc(-c2c(Cl)cc3c(N4CC5CCC(C4)N5)nc(OCCCN4CC5(COC5)C4)nc3c2F)c2ccccc2c1 (single isomer, unassigned) [Compound 245, 4-((S or R)-2-(3-(2-oxa-6-azaspiro[3.3]heptan-6-yl)propoxy)-4-((1R,5S)-3,8-diazacyclo[3.2.1]octan-3-yl)-6-chloro-8-fluoroquinazolin-7-yl)naphthalen-2-ol diformate]
26.2 | 103 | 1190 | Oc1cc(-c2c(Cl)cc3c(N4CC5CCC(C4)N5)nc(OCCCN4CCOCC4)nc3c2F)c2ccccc2c1 (single isomer, unassigned) [Compound 54a, 4-((S or R)-4-((1R,5S)-3,8-diazabicyclo[3.2.1]octan-3-yl)-6-chloro-8-fluoro-2-(3-morpholinopropoxy)quinazolin-7-yl)naphthalen-2-ol]
